Data set [1] concerns the target T1, Amine oxidase [flavin-containing] A (Homo sapiens, UniProt P21397).
T1 sequence (P21397 whole entry): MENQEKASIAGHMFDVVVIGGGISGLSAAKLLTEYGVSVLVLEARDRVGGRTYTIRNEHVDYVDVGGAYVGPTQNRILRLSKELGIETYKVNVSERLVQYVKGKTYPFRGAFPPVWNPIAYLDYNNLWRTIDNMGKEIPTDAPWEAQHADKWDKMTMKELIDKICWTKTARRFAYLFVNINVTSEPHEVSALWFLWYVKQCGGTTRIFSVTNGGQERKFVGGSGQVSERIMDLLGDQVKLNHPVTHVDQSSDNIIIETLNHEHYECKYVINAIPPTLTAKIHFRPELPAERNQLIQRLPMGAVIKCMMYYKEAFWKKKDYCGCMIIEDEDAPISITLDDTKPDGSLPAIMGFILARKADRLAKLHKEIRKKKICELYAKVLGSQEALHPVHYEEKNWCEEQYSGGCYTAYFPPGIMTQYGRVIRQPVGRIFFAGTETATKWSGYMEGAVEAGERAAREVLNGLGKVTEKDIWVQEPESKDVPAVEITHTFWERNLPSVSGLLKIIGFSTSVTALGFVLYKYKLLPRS
The data set is described as follows: Inhibition of human recombinant MAO-A expressed in baculovirus infected insect cells using kynuramine as substrate after 20 mins by horseradish peroxidase-coupled assay.

Data set [2] concerns the target T2, Amine oxidase [flavin-containing] B (Homo sapiens, UniProt P27338).
T2 sequence (P27338 whole entry): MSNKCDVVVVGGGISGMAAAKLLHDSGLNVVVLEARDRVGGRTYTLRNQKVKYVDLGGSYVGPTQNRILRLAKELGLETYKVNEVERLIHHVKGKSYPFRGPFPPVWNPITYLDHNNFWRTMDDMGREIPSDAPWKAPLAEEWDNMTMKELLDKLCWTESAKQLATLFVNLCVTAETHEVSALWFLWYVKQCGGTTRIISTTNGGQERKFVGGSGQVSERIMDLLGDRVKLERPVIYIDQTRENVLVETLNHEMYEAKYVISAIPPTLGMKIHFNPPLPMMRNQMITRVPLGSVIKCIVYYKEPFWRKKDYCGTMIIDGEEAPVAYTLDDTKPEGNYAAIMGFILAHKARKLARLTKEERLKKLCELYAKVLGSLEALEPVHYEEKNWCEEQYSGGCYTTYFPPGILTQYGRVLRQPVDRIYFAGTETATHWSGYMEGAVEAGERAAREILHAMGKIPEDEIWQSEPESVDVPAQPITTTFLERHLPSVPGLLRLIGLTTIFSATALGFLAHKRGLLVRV
The data set is described as follows: Inhibition of human recombinant MAO-B expressed in baculovirus infected insect cells using kynuramine as substrate after 20 mins by horseradish peroxidase-coupled assay.

The species named for a further data set is Homo sapiens. As to the kind of experiment: Selectivity index, ratio of IC50 for human recombinant MAO-A to IC50 for human recombinant MAO-B.
The target of data set [3] is T1, Amine oxidase [flavin-containing] A. As to the kind of experiment: Reversible inhibition of human recombinant MAO-A expressed in baculovirus infected insect cells using kynuramine as substrate at 9.7 uM incubated up to 60 mins prior to substrate addition measured after 15 mins by fluorescence spectrophotometry. The settings on record: 0.25 h.
Data set [4] has as its target T2, Amine oxidase [flavin-containing] B. The data set is described as follows: Reversible inhibition of human recombinant MAO-B expressed in baculovirus infected insect cells using kynuramine as substrate at 9.7 uM incubated up to 60 mins prior to substrate addition measured after 15 mins by fluorescence spectrophotometry. The settings on record: 0.25 h.
The target in data set [5] is T1, Amine oxidase [flavin-containing] A. As to the kind of experiment: Reversible inhibition of human recombinant MAO-A expressed in baculovirus infected insect cells using kynuramine as substrate at 0.3 uM incubated up to 60 mins prior to substrate addition measured after 15 mins by fluorescence spectrophotometry. To be noted: 0.25 h.
For data set [6], the target named is T2, Amine oxidase [flavin-containing] B. As to the kind of experiment: Reversible inhibition of human recombinant MAO-B expressed in baculovirus infected insect cells using kynuramine as substrate at 0.3 uM incubated up to 60 mins prior to substrate addition measured after 15 mins by fluorescence spectrophotometry. To be noted: 0.25 h.
Data set [7] shares this target. The data set is described as follows: Competitive inhibition of human recombinant MAO-B expressed in baculovirus infected insect cells using kynuramine as substrate by Lineweaver-Burk plot analysis.
Data set [8] addresses T1, Amine oxidase [flavin-containing] A. As to the kind of experiment: Inhibition of human recombinant MAO-A expressed in baculovirus infected insect cells using kynuramine as substrate after 20 mins by fluorescence spectrophotometry.
Data set [9] concerns the target T2, Amine oxidase [flavin-containing] B. The data set is described as follows: Inhibition of human recombinant MAO-B expressed in baculovirus infected insect cells using kynuramine as substrate after 20 mins by fluorescence spectrophotometry.

We go through 24 compounds from ChEMBL document CHEMBL2086337, “Inhibition of monoamine oxidase by 8-phenoxymethylcaffeine derivatives” (Bioorg Med Chem, 2012).

Regarding `Cn1c(=O)c2c(nc(COc3cccc(C(F)(F)F)c3)n2C)n(C)c1=O`, the IC50 in [1] (read-out: IC50) came out at 4.59 µM; in [2] it was 0.641 µM. In addition, in the data set listed under Homo sapiens, the Ratio IC50 was 7. In addition, the “inhibition (INH)” value in [3] and in data set [4] was “Active” throughout.

For `Cn1c(=O)c2c(nc(COc3cccc(Br)c3)n2C)n(C)c1=O`, the IC50 came to 34 µM in [1] (read-out: IC50) and 0.148 µM in data set [2]. In the data set listed under Homo sapiens, the Ratio IC50 was 230. Further, the “inhibition (INH)” value in data set [5], in data set [6] and in data set [7] was “Active” each time.

With `Cn1c(=O)c2c(nc(COc3cccc(F)c3)n2C)n(C)c1=O`, the IC50 in data set [1] (read-out: IC50) is 13.2 µM; in [2], 1.61 µM. The Ratio IC50 in the data set listed under Homo sapiens was 8.

Turning to `Cn1c(=O)c2c(nc(CSc3ccccc3)n2C)n(C)c1=O`, the concentration for half-maximal inhibition (IC50) in [8] worked out at 66.2 µM; in [9] it was 23.4 µM. In addition, the Ratio IC50 in the data set filed under Homo sapiens came out at 3.

Take `COc1cccc(OCc2nc3c(c(=O)n(C)c(=O)n3C)n2C)c1`: the half-inhibitory concentration (IC50) result in data set [1] was “Not Active”; in [2] it was 1.96 µM.

Consider `Cn1c(=O)c2c(nc(COc3ccccc3)n2C)n(C)c1=O`, for which the concentration for half-maximal inhibition (IC50) in data set [1] (read-out: IC50) was determined as 21.1 µM; in data set [2], 5.78 µM. Besides, the Ratio IC50 in the data set listed under Homo sapiens is 4.

`Cn1c(=O)c2c(nc(CSc3ccc(Cl)cc3)n2C)n(C)c1=O`: the IC50 is 31.6 µM in data set [8] and 6.91 µM in data set [9]. In the data set listed under Homo sapiens, the Ratio IC50 stood at 5.

With `Cn1c(=O)c2c(nc(CCSc3cccc(Br)c3)n2C)n(C)c1=O`, the results for the IC50 in [1] (read-out: IC50) and in data set [2] were 372 µM and 64.1 µM, respectively. For the same compound, the Ratio IC50 in the data set filed under Homo sapiens amounted to 6.

In the case of `COc1cccc(SCc2nc3c(c(=O)n(C)c(=O)n3C)n2C)c1`, the concentration for half-maximal inhibition (IC50) in data set [8] amounted to 41.3 µM; in [9], 8.42 µM. Moreover, the Ratio IC50 in the data set listed under Homo sapiens came to 5.

With `Cc1cccc(OCc2nc3c(c(=O)n(C)c(=O)n3C)n2C)c1`, the IC50 in data set [1] (read-out: IC50) came to 18.8 µM; in [2], 1.23 µM. Besides, in the data set filed under Homo sapiens, the Ratio IC50 worked out at 15.

For the compound `Cn1c(=O)c2c(nc(CCSc3ccc(Cl)cc3)n2C)n(C)c1=O`, the IC50 stood at 142 µM in [1] (read-out: IC50) and 7.79 µM in data set [2]. The Ratio IC50 in the data set listed under Homo sapiens was determined as 18.

`Cn1c(=O)c2c(nc(COc3ccc(Cl)cc3)n2C)n(C)c1=O`: the IC50 in data set [1] (read-out: IC50) stood at 20.4 µM; in data set [2] it was 0.25 µM. Moreover, the Ratio IC50 in the data set filed under Homo sapiens stood at 82.

As to `Cn1c(=O)c2c(nc(CCSc3cccc(Cl)c3)n2C)n(C)c1=O`, the IC50 result in [1] was “Not Active”; in data set [2], 5.67 µM.

With `Cn1c(=O)c2c(nc(CSc3cccc(Cl)c3)n2C)n(C)c1=O`, the IC50 came to 19.4 µM in data set [8] and 6.12 µM in [9]. In the data set filed under Homo sapiens, the Ratio IC50 turned out to be 3.

Consider `Cn1c(=O)c2c(nc(COc3cccc(Cl)c3)n2C)n(C)c1=O`, for which the IC50 entry in data set [1] was “Not Active”; in [2], 0.334 µM.

Turning to `Cn1c(=O)c2c(nc(CCSc3ccccc3)n2C)n(C)c1=O`, the results for the half-inhibitory concentration (IC50) in [1] (read-out: IC50) and in data set [2] were 139 µM and 108 µM, respectively. Besides, the Ratio IC50 in the data set listed under Homo sapiens came out at 1.3.

Turning to `Cn1c(=O)c2c(nc(CSc3cccc(Br)c3)n2C)n(C)c1=O`, the figures for the IC50 in data set [8] and in [9] were 23.8 µM and 4.9 µM, respectively. Also, in the data set filed under Homo sapiens, the Ratio IC50 amounted to 5.

Regarding `Cc1cccc(SCc2nc3c(c(=O)n(C)c(=O)n3C)n2C)c1`, the results for the concentration for half-maximal inhibition (IC50) in [8] and in data set [9] were 51.8 µM and 17.9 µM, respectively. The Ratio IC50 in the data set listed under Homo sapiens amounted to 3.

As for `Cn1c(=O)c2c(nc(COc3ccc(Br)cc3)n2C)n(C)c1=O`, the half-inhibitory concentration (IC50) in data set [1] (read-out: IC50) was 10.7 µM; in data set [2], 0.189 µM. The Ratio IC50 in the data set listed under Homo sapiens was determined as 57.

As to `Cn1c(=O)c2c(nc(CSc3cccc(F)c3)n2C)n(C)c1=O`, the results for the IC50 in [8] and in [9] were 50.1 µM and 22.3 µM, respectively. Further, the Ratio IC50 in the data set filed under Homo sapiens stood at 2.

Regarding `Cn1c(=O)c2c(nc(CSc3ccc(Br)cc3)n2C)n(C)c1=O`, the concentration for half-maximal inhibition (IC50) was 20.8 µM in data set [8] and 4.05 µM in data set [9]. In the data set filed under Homo sapiens, the Ratio IC50 was 5.

As to `Cn1c(=O)c2c(nc(CCSc3ccc(Br)cc3)n2C)n(C)c1=O`, the IC50 in data set [1] (read-out: IC50) turned out to be 117 µM; in [2] it was 124 µM. For the same compound, the Ratio IC50 in the data set listed under Homo sapiens turned out to be 0.9.

For the compound `Cn1c(=O)c2c(nc(COc3ccc(F)cc3)n2C)n(C)c1=O`, the values for the IC50 in [1] (read-out: IC50) and in [2] were 8.22 µM and 0.825 µM, respectively. Moreover, the Ratio IC50 in the data set filed under Homo sapiens is 10.

Regarding `CCOc1cccc(SCc2nc3c(c(=O)n(C)c(=O)n3C)n2C)c1`, the 50% inhibitory concentration (IC50) in [8] is 44.7 µM; in data set [9], 18.4 µM. Moreover, in the data set listed under Homo sapiens, the Ratio IC50 was found to be 2.

Usually IC50 stands for the concentration needed to halve the response being measured.
